{"source": "patent US20220009988A1", "about": "“PEPTIDE MODULATORS OF THE INTERACTION BETWEEN HUMAN C-PEPTIDE AND HUMAN ELASTIN RECEPTOR FOR THERAPEUTIC USE” (Biotempt B.V., priority 2017, published 2022)", "key": {"[1]": {"tested_on": "glucose-induced vascular dysfunction", "details": "cited from earlier work; for potency on vascular dysfunction relative to native C-peptide / prevention of vascular dysfunction (active / inactive): skin chamber granulation tissue model in rats; for normalization (%) of 30 mM glucose-induced vascular dysfunction: rats, FIG. 1 adapted from Ido et al. 1997"}, "[2]": {"tested_on": "human renal tubular cells", "details": "cited from earlier work"}, "[3]": {"tested_on": "cell membrane-bound C-peptide", "details": "cited from earlier work"}, "[4]": {"tested_on": "MAP kinase signaling pathways", "details": "cited from earlier work"}, "[5]": {"tested_on": "Na^+K^+ATPase", "details": "rat renal tubule cells; cited from earlier work"}, "[6]": {"tested_on": "CD4+ immune cells", "experiment": "classical Boyden chamber experiment, migration of CD4+ immune cells", "format": "cell-based", "details": "V14-peptide at 1.3 microM; C-peptide at 10 nM", "excerpt": "Moreover, additional examples of fragments of the human C-peptide are provided herein and ^14, all bearing a mid-portion hexapeptide 12 SEQ ID NO:34 (LGGGPG) 17, that all prevented vascular dysfunction whereas other human C-peptide fragments, wherein the hexapeptide mid-portion was disrupted, were found not active. […] Human C-peptide and its xGxxPG containing fragments may thus be considered an unexpected species of the genus of a larger class of peptides: elastin peptides capable of elastin receptor activation, whereby excess C-peptide may be meddling with elastin receptor mediated tissue repair, modulating chronic-low grade inflammation, IR and hypertension. […] This provides a substantial jump in our understanding of the causes of metabolic syndrome and other lifestyle- or age-related conditions of IR. […] It is provided to do these tests with synthetic human C-peptide variants or fragments, provided with or without the sequence GxxP, to study binding, including classical elastin receptor antagonist V14 peptide to study inhibition of binding. Similarly, one can do the C-peptide tests in a skin chamber granulation tissue model of vascular function ^14, or test synthetic, inducibly or constitutively expressed C-peptide in established models of atherosclerosis, Neu-1 mediated IR or PPCA mediated hypertension ^7-9."}, "[7]": {"tested_on": "bioactivity of C-peptide", "experiment": "preliminary in-vitro inhibition of bioactivity of C-peptide", "details": "preliminary in-vitro results"}, "[8]": {"target": "human elastin receptor (elastin binding protein, EBP) on CD4+ immune cells (human)"}}, "data": [{"substance": "D--1EAEDLQVGQVELGGGPGAGSLQPLALEGSLQ31 [enantio C-peptide]", "values": [{"measurement": "potency on vascular dysfunction relative to native C-peptide", "setting": "[1]", "result": "equipotent to native C-peptide"}]}, {"substance": "DLQVGQVELGGGPGAGSLQPL [SEQ ID NO:20]", "values": [{"measurement": "normalization (%) of 30 mM glucose-induced vascular dysfunction", "setting": "[1]", "result": "significant normalization"}]}, {"substance": "DLQVGQVELGGGPGAGSLQPLALEGSLQ [SEQ ID NO:10]", "values": [{"measurement": "normalization (%) of 30 mM glucose-induced vascular dysfunction", "setting": "[1]", "result": "significant normalization"}]}, {"substance": "EAEDLQVGQVELGGGPGAGSLQPL (EAEDLQVGQVELGGGPGAGSLQPLAL) [SEQ ID NO:17]", "values": [{"measurement": "normalization (%) of 30 mM glucose-induced vascular dysfunction", "setting": "[1]", "result": "significant normalization"}]}, {"substance": "EAENPQAGAVELGGGLGGLQALALEGPPQ [pig C-peptide]", "values": [{"measurement": "prevention of vascular dysfunction (active / inactive)", "setting": "[1]", "result": "inactive"}]}, {"substance": "EGSLQ [SEQ ID NO:6]", "values": [{"measurement": "intracellular Ca2+", "setting": "[2]", "result": "may induce intracellular Ca2+ increases"}, {"measurement": "displacement of cell membrane-bound C-peptide", "setting": "[3]", "result": "displaces"}, {"measurement": "MAP kinase signaling pathways", "setting": "[4]", "result": "stimulates"}]}, {"substance": "ELGGGPGAG [SEQ ID NO:9]", "values": [{"measurement": "Na^+K^+ATPase activity", "setting": "[5]", "result": "stimulate"}]}, {"substance": "ELGGGPGAGSLQPL [SEQ ID NO:176]", "values": [{"measurement": "normalization (%) of 30 mM glucose-induced vascular dysfunction", "setting": "[1]", "result": "significant normalization"}]}, {"substance": "EVARQ [SEQ ID NO:7]", "values": [{"measurement": "intracellular Ca2+", "setting": "[2]", "result": "may induce intracellular Ca2+ increases"}]}, {"substance": "EVEDPQVPQLELGGGPEAGDLQTLALEVARQ [Rat C-peptide]", "values": [{"measurement": "prevention of vascular dysfunction (active / inactive)", "setting": "[1]", "result": "active"}]}, {"substance": "GGGPGAG [SEQ ID NO:8]", "values": [{"measurement": "normalization (%) of 30 mM glucose-induced vascular dysfunction", "setting": "[1]", "result": "normalize"}]}, {"substance": "GQVELGGGPGAGSLQPLALEGSLQ [SEQ ID NO:13]", "values": [{"measurement": "normalization (%) of 30 mM glucose-induced vascular dysfunction", "setting": "[1]", "result": "significant normalization"}]}, {"substance": "LGGGPGAGSLQPLALEGSLQ [SEQ ID NO:14]", "values": [{"measurement": "normalization (%) of 30 mM glucose-induced vascular dysfunction", "setting": "[1]", "result": "significant normalization"}]}, {"substance": "QLSGELALPQLSGAGPGGGLEVQGVQLDEAE (retro C-peptide)", "values": [{"measurement": "potency on vascular dysfunction relative to native C-peptide", "setting": "[1]", "result": "equipotent to native C-peptide"}]}, {"substance": "VGQVELGGGPGAGSLQPL [SEQ ID NO:175]", "values": [{"measurement": "normalization (%) of 30 mM glucose-induced vascular dysfunction", "setting": "[1]", "result": "significant normalization"}]}, {"substance": "VVGSPSAQDEASPL [V14-peptide]", "values": [{"measurement": "C-peptide-induced CD4-migration inhibited, antagonized and diminished", "setting": "[6]", "result": "> 50", "unit": "%"}, {"measurement": "inhibition of bioactivity of C-peptide", "setting": "[7]", "result": "inhibition"}]}, {"substance": "human C-peptide", "values": [{"measurement": "migration of CD4+ immune cells in a classical Boyden chamber experiment (% increase of migration)", "setting": "[8]", "result": 100}]}]}
